Laboratory results taken from patent US4778824A, “Method for suppressing a transplantation immunity and treating an allergic disease and an autoimmune disease” (Zaidan Hojin Biseibutsu Kagaku Kenkyu Kai, priority 1984, dated 1988).
Counter-ions that a name gives are not always drawn.

Columns and labels:
B-lymphocyte = test: Inhibition of LPS-induced reaction of B-lymphocyte blastogenesis (3H-thymidine uptake); assay type: cell-based, BALB/c mice; conditions: LPS 100 μg/ml; for ^3 H--thymidine uptake: ± S.D.
Method: (§1) The present inventors conducted tests to evaluate the actions of spergualin against the reaction of lymphocyte blastogenesis in accordance with the method of Waithe et al. (Waithe et al., Handbook of Experimental Immunology, page 26.1, 1978).
(§2) Spleen cells from BALB/c mice were distritubed among wells in a microplate so that each well contained 2×10^5 cells/0.2 ml. The compound was added to all wells but one, the latter being used as a control. Con A (5 μg/ml) was added to all the wells and the so prepared cell suspensions were cultivated in a 5% CO2 incubator for 72 hours at 37° C. Eight hours before the completion of the incubation, 1 μCi of ^3 H-thymidine was added to each well and the uptake of the thymidine by the cultured cells was measured with a liquid scintillation counter to estimate the progress of the reaction of T-lymphocyte blastogenesis. The percentage inhibition of the blastogenesis by the test compound was calculated by: […] wherein Adpm indicates the uptake count for the addition of only Con A and Bdpm, the count for the addition of both Con A and the test compound.
The uptake of ^3 H-thymidine by B-cell was measured in accordance with the method used in Experiment 1, except that the inducer Con A was replaced by 100 μg/ml of LPS from E. coli. The percentage inhibition of blastogenesis by the test compound was also determined by the same method as used in Experiment 1.

[1] = system: Skin allograft rejection (SHR to Fischer rats); test: Inhibition of rejection of skin allograft; assay type: in vivo; conditions: ± S.D.
Excerpt: In the next place, the present inventors conducted a skin graft test with rats. In accordance with the method of Denham et al. (Denham et al., International Archives of Allergy and Applied Immunology, vol. 62, pp. 443-458, 1980), the skin of the tail of SHR rats was peeled and allografted onto Fischer rats. […] The inhibitory action of spergualin on tissue rejections is expected to manifest itself not only in skin transplantation but also in the transplantation of such organs as the kidney, heart, spleen, lung, liver, bone marrow and endocrine organs.
Skin sections (5×10 mm) were peeled from the tails of SHR rats (female, 10 wk old) and transplanted to Fischer rats (female, 10 wk old) on the back. Varying doses of spergualin were administered intraperitoneally for a consecutive period of 10 or 20 days starting on the day following the transplantation. Complete necrosis of the graft was used as a measure of rejection and the inhibitory action of the compound was evaluated in terms of how long the rejection was postponed. […] The longer the period of administration, the greater the inhibitory action.

[2] = system: experimental aplastic anemia; test: Effect on experimental aplastic anemia in mice; assay type: in vivo, C3H/HeN mice; conditions: 10 days; for MST (mean survival time): ± S.D.
Excerpt: Female C3H/HeN mice (Mls^c) of 10 week-old and female CBA mice (Mls^d) of 10 week-old were used. A group consisted of 10 mice. CBA lymph node cells (10^7) were i.v. into C3H/HeN mice after being subjected to 600 rads of whole-body X-irradiation, spergualin was given i.p. once a day for 10 days. The data is indicated as the mean survival time ±S.D.

T-lymphocyte = test: Inhibition of Con A-induced reaction of T-lymphocyte blastogenesis (3H-thymidine uptake, BALB/c spleen cells); assay type: cell-based, BALB/c mice; conditions: Con A 5 μg/ml, 72 h; for ^3 H--thymidine uptake: ± S.D.
Method: as §1, §2

[3] = Exp. 1, 3.13 mg/kg i.p. once a day
[4] = Exp. 2, 6.25 mg/kg i.p. once a day
[5] = Exp. 2, 25.0 mg/kg i.p. once a day
[6] = Exp. 2, 50.0 mg/kg i.p. once a day

Compound: N=C(N)NCCCCC(O)CC(=O)NC(O)C(=O)NCCCCNCCCN (stereo not drawn) [spergualin (trihydrochloride)]
- ^3 H--thymidine uptake (B-lymphocyte; 10 μg/ml): 38,842 ± 21,573 dpm
- ^3 H--thymidine uptake (B-lymphocyte; 100 μg/ml): 396 ± 216 dpm
- inhibition at 10 µg/mL (B-lymphocyte; Mus musculus, 10 μg/ml): 83.4%
- inhibition at 100 µg/mL (B-lymphocyte; Mus musculus, 100 μg/ml): 99.8%
- Average No. of days before rejection ([1]; Run 1, 6.25 mg/kg/day i.p., days 1-10): 10.2 ± 2.6 days
- Average No. of days before rejection ([1]; Run 1, 12.5 mg/kg/day i.p., days 1-10): 13.0 ± 4.2 days
- Average No. of days before rejection ([1]; Run 1, 25.0 mg/kg/day i.p., days 1-10): 14.9 ± 6.9 days
- Average No. of days before rejection ([1]; Run 1, 50.0 mg/kg/day i.p., days 1-10): 17.0 ± 3.2 days
- Average No. of days before rejection ([1]; Run 2, 25.0 mg/kg/day i.p., days 1-10): 15.0 ± 5.2 days
- Average No. of days before rejection ([1]; Run 2, 25.0 mg/kg/day i.p., days 1-20): 31.0 ± 1.9 days
- 30-day survivors, Survivors/Total [2, 3]: 2/10
- MST (mean survival time) [2, 3]: 16.3 ± 8.1 days
- 30-day survivors, Survivors/Total ([2]; Exp. 1, 6.25 mg/kg i.p. once a day): 6/10
- MST (mean survival time) ([2]; Exp. 1, 6.25 mg/kg i.p. once a day, P < 0.05): 22.6 ± 9.7 days
- 30-day survivors, Survivors/Total ([2]; Exp. 1, 12.5 mg/kg i.p. once a day): 10/10
- MST (mean survival time) ([2]; Exp. 1, 12.5 mg/kg i.p. once a day, P < 0.01): 30.0 ± 0.0 days
- 30-day survivors, Survivors/Total ([2]; Exp. 1, 25.0 mg/kg i.p. once a day): 6/10
- MST (mean survival time) ([2]; Exp. 1, 25.0 mg/kg i.p. once a day, P < 0.05): 23.6 ± 8.6 days
- 30-day survivors, Survivors/Total [2, 4]: 3/10
- MST (mean survival time) [2, 4]: 20.2 ± 8.4 days
- 30-day survivors, Survivors/Total ([2]; Exp. 2, 12.5 mg/kg i.p. once a day): 6/10
- MST (mean survival time) ([2]; Exp. 2, 12.5 mg/kg i.p. once a day, P < 0.05): 23.0 ± 9.4 days
- 30-day survivors, Survivors/Total [2, 5]: 4/10
- MST (mean survival time) [2, 5]: 20.7 ± 8.5 days
- 30-day survivors, Survivors/Total [2, 6]: 0/10
- MST (mean survival time) [2, 6]: 12.6 ± 3.9 days
- ^3 H--thymidine uptake (T-lymphocyte; 10 μg/ml): 30,214 ± 25,033 dpm
- ^3 H--thymidine uptake (T-lymphocyte; 100 μg/ml): 788 ± 182 dpm
- inhibition at 10 µg/mL (T-lymphocyte; Mus musculus, T-lymphocyte, 10 μg/ml): 76.7%
- inhibition at 100 µg/mL (T-lymphocyte; Mus musculus, T-lymphocyte, 100 μg/ml): 99.4%
